Experimental data: ChEMBL document CHEMBL3352139, “Unambiguous Determination of the Absolute Configuration of Dimeric Stilbene Glucosides from the Rhizomes of Gnetum africanum” (J Nat Prod, 2014)

Target: Amyloid-beta precursor protein (Homo sapiens) (UniProt P05067)
Assay: Inhibition of Amyloid beta (25 to 35) (unknown origin) polymerization assessed as reduction in beta-amyloid fibril formation at 10 uM after 6 hrs by UV-visible spectroscopy

Amyloid-beta precursor protein (Homo sapiens), sequence (P05067 whole entry): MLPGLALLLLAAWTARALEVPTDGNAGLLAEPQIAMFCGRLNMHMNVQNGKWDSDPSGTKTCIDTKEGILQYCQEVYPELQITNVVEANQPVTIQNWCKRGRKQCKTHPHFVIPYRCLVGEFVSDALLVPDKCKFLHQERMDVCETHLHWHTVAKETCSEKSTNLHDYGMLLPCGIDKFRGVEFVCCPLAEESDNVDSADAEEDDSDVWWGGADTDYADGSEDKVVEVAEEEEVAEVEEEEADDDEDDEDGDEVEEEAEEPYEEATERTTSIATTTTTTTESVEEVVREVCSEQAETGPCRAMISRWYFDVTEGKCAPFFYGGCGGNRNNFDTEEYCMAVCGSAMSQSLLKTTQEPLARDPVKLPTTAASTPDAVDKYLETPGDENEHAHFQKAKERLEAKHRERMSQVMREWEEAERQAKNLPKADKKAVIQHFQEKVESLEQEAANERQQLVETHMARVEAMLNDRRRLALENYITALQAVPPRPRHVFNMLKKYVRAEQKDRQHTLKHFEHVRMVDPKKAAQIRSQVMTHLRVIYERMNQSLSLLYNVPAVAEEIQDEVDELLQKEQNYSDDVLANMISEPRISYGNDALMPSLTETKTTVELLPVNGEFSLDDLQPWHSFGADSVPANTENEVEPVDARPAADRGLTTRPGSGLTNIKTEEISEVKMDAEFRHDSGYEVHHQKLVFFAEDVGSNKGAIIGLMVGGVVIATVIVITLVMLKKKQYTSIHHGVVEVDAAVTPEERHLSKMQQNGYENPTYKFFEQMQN

| inhibition [%] | Structure (SMILES) |
| --- | --- |
| 54 | OC[C@H]1O[C@@H](Oc2ccc(/C=C/c3cc(O)c4c(c3)O[C@H](c3ccc(O)cc3)[C@H]4c3cc(O)cc(O)c3)cc2)[C@H](O)[C@@H](O)[C@@H]1O |
| 56 | OC[C@H]1O[C@@H](Oc2ccc(/C=C/c3cc(O)c4c(c3)O[C@@H](c3ccc(O[C@@H]5O[C@H](CO)[C@@H](O)[C@H](O)[C@H]5O)cc3)[C@@H]4c3cc(O)cc(O)c3)cc2)[C@H](O)[C@@H](O)[C@@H]1O |
| 56 | OC[C@H]1O[C@@H](Oc2ccc(/C=C/c3cc(O)c4c(c3)O[C@H](c3ccc(O[C@@H]5O[C@H](CO)[C@@H](O)[C@H](O)[C@H]5O)cc3)[C@H]4c3cc(O)cc(O)c3)cc2)[C@H](O)[C@@H](O)[C@@H]1O |
| 58 | OC[C@H]1O[C@@H](Oc2ccc([C@H]3Oc4cc(/C=C/c5ccc(O)cc5)cc(O)c4[C@@H]3c3cc(O)cc(O)c3)cc2)[C@H](O)[C@@H](O)[C@@H]1O |
